The results in this text go back to ChEMBL document CHEMBL1141493, “Synthesis and structure-activity relationships of heteroaryl substituted-3,4-diamino-3-cyclobut-3-ene-1,2-dione CXCR2/CXCR1 receptor antagonists” (Bioorg Med Chem Lett, 2008).

The IC50 is the concentration that gives 50% inhibition. As usually defined, the AUC is concentration integrated over time. Read a high AUC as more exposure.

Activity calls are given as the source filed them. The calls are words filed in the database; no cut-off is given here.

Data set [1] deals with T1, C-X-C chemokine receptor type 1 (Homo sapiens, UniProt P25024).
T1 sequence (P25024 whole entry): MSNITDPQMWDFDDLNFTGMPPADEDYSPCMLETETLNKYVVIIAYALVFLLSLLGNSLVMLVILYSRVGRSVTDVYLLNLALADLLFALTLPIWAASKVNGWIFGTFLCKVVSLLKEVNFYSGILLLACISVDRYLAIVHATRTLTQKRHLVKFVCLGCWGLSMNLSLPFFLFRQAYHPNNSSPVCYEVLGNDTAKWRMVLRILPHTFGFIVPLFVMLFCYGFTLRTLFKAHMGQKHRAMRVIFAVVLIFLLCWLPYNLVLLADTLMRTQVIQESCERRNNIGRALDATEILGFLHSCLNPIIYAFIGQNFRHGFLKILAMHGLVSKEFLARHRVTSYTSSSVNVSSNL
Briefly: Inhibition of CXCR1.

The target of data set [2] is T2, C-X-C chemokine receptor type 2 (Homo sapiens, UniProt P25025).
T2 sequence (P25025 whole entry): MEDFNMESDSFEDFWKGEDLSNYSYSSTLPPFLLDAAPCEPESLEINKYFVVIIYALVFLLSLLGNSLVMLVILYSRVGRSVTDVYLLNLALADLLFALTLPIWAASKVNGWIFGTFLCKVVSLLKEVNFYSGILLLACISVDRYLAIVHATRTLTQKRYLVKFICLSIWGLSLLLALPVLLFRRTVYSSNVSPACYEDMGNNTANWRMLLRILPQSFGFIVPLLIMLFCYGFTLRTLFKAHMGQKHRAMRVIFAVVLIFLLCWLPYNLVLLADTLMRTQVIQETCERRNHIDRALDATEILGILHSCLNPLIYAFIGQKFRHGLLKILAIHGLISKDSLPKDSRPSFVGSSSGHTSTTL
Briefly: Inhibition of CXCR2.

Data set [3] can be described thus: AUC in rat at 10 mg/kg, po. Format: ADME, organism-based. Also noted: dose 10 mg/kg, route oral. Conditions: plasma.
For data set [4], the target named is T3, C-X-C chemokine receptor type 1 (Homo sapiens) (UniProt P25024).
T3 sequence (whole entry): T1 sequence (P25024 whole entry)
Briefly: Inhibition of CXCR1-mediated chemotaxis in Ba/F3 cells expressing human CXCR1 at >10000 nM. Type of data set: cell-based. Particulars: BaF3.

Data set [5] addresses T3, C-X-C chemokine receptor type 1 (Homo sapiens). Briefly: Inhibition of CXCR1 at >10000 nM.

Consider `CCC(Nc1c(Nc2cccc(C(=O)N(C)C)c2O)c(=O)c1=O)c1cc(C)on1` (stereo not given), for which the IC50 came out at 0.224 µM in data set [1] and 0.0075 µM in data set [2].
In the case of `CCC(Nc1c(Nc2cccc(C(=O)N(C)C)c2O)c(=O)c1=O)c1ccc(Br)o1` (stereo not given), the 50% inhibitory concentration (IC50) worked out at 0.463 µM in data set [1] and 0.0047 µM in data set [2].
With `CCC(Nc1c(Nc2cccc(C(=O)N(C)C)c2O)c(=O)c1=O)c1ccncc1` (stereo not given), the half-maximal inhibitory concentration (IC50) in data set [1] amounted to 2.86 µM; in data set [2], 0.05 µM.
As for `CC[C@@H](Nc1c(Nc2cccc(C(=O)N(C)C)c2O)c(=O)c1=O)c1ccsc1`, the IC50 in data set [1] was found to be 0.104 µM; in data set [2], 0.0034 µM.
The corresponding values for `CCC(Nc1c(Nc2cccc(C(=O)N(C)C)c2O)c(=O)c1=O)c1cc(Cl)co1` (stereo not given) are 0.1 µM and 0.0045 µM.
`CCC(Nc1c(Nc2cccc(C(=O)N(C)C)c2O)c(=O)c1=O)c1sccc1Cl` (stereo not given): the IC50 in data set [1] amounted to 1.37 µM; in data set [2], 0.021 µM.
The matching figures for `CCC(Nc1c(Nc2cccc(C(=O)N(C)C)c2O)c(=O)c1=O)c1cc(Br)co1` (stereo not given): 0.093 µM and 0.005 µM.
Regarding `CC[C@@H](Nc1c(Nc2cccc(C(=O)N(C)C)c2O)c(=O)c1=O)c1cc(C)on1`, the IC50 worked out at 0.171 µM in data set [1] and 0.0063 µM in data set [2]. This compound also came in with an exposure (AUC) in data set [3] of 3.7 µM·h. For the same compound, in data set [4], the result was inactive.
The compound `CCC(Nc1c(Nc2cccc(C(=O)N(C)C)c2O)c(=O)c1=O)c1cccn1C` (stereo not given) returned a 50% inhibitory concentration (IC50) in data set [2] of 0.815 µM. Besides, in data set [5], the result was inactive.
With `CCC(Nc1c(Nc2cccc(C(=O)N(C)C)c2O)c(=O)c1=O)c1ccco1` (stereo not given), the IC50 in data set [1] was found to be 0.067 µM; in data set [2], 0.005 µM.
The matching figures for `CCC(Nc1c(Nc2cccc(C(=O)N(C)C)c2O)c(=O)c1=O)c1ccc(C(F)F)o1` (stereo not given): 0.568 µM and 0.0068 µM.
As for `CCC(Nc1c(Nc2cccc(C(=O)N(C)C)c2O)c(=O)c1=O)c1nccs1` (stereo not given), the concentration for half-maximal inhibition (IC50) in data set [1] was found to be 0.703 µM; in data set [2] it was 0.0098 µM.
On to `CC[C@@H](Nc1c(Nc2cccc(C(=O)N(C)C)c2O)c(=O)c1=O)c1ccccn1`, for which the IC50 in data set [1] came out at 0.148 µM; in data set [2], 0.0033 µM. Also, the outcome in data set [4] was inactive.
Consider `CCC(Nc1c(Nc2cccc(C(=O)N(C)C)c2O)c(=O)c1=O)c1ccc(CO)o1` (stereo not given), for which the concentration for half-maximal inhibition (IC50) in data set [1] was 0.182 µM; in data set [2], 0.0028 µM.
The compound `CCC(Nc1c(Nc2cccc(C(=O)N(C)C)c2O)c(=O)c1=O)c1ccc(C(=O)N(C)C)o1` (stereo not given) gave an IC50 in data set [2] of 0.171 µM. Also, the result in data set [5] was inactive.
The matching figures for `CCC(Nc1c(Nc2cccc(C(=O)N(C)C)c2O)c(=O)c1=O)c1ccc(-c2ccccc2C(F)(F)F)o1` (stereo not given): 0.15 µM and “inactive”.
Regarding `CCC(Nc1c(Nc2cccc(C(=O)N(C)C)c2O)c(=O)c1=O)c1cocn1` (stereo not given), the 50% inhibitory concentration (IC50) came to 0.805 µM in data set [1] and 0.0109 µM in data set [2].
The matching figures for `CCC(Nc1c(Nc2cccc(C(=O)N(C)C)c2O)c(=O)c1=O)c1nc(C)no1` (stereo not given): 0.289 µM and 0.0082 µM.
With `CCC(Nc1c(Nc2cccc(C(=O)N(C)C)c2O)c(=O)c1=O)c1occc1Br` (stereo not given), the IC50 in data set [1] is 1.02 µM; in data set [2] it was 0.0165 µM.
`CCC(Nc1c(Nc2cccc(C(=O)N(C)C)c2O)c(=O)c1=O)c1cc(-c2c(C)noc2C)co1` (stereo not given): the results for the IC50 in data set [1] and in data set [2] were 0.345 µM and 0.0076 µM, respectively.
As for `CC[C@@H](Nc1c(Nc2cccc(C(=O)N(C)C)c2O)c(=O)c1=O)c1cc(Cl)co1`, the results for the concentration for half-maximal inhibition (IC50) in data set [1] and in data set [2] were 0.062 µM and 0.0038 µM, respectively. The same compound yielded an AUC in data set [3] of 21.5 µM·h.
On to `CCC(Nc1c(Nc2cccc(C(=O)N(C)C)c2O)c(=O)c1=O)c1cc(-c2ccccc2)co1` (stereo not given), for which the results for the IC50 in data set [1] and in data set [2] were 0.15 µM and 0.0061 µM, respectively.
The corresponding values for `CCc1ccc(C(CC)Nc2c(Nc3cccc(C(=O)N(C)C)c3O)c(=O)c2=O)o1` (stereo not given) are 0.854 µM and 0.0041 µM.
Regarding `CC[C@@H](Nc1c(Nc2cccc(C(=O)N(C)C)c2O)c(=O)c1=O)c1cc(Br)co1`, the results for the 50% inhibitory concentration (IC50) in data set [1] and in data set [2] were 0.055 µM and 0.0035 µM, respectively. The AUC in data set [3] was 33.4 µM·h.
For `CCC(Nc1c(Nc2cccc(C(=O)N(C)C)c2O)c(=O)c1=O)c1ccc(-c2ccccc2Cl)o1` (stereo not given), the IC50 stood at 4.87 µM in data set [1] and 0.049 µM in data set [2].
The matching figures for `CC[C@@H](Nc1c(Nc2cccc(C(=O)N(C)C)c2O)c(=O)c1=O)c1ccc(Cl)o1`: 0.244 µM and 0.0046 µM.
Consider `CCC(Nc1c(Nc2cccc(C(=O)N(C)C)c2O)c(=O)c1=O)c1ccno1` (stereo not given), for which the IC50 in data set [1] came to 0.302 µM; in data set [2], 0.0098 µM.
The corresponding values for `CCC(Nc1c(Nc2cccc(C(=O)N(C)C)c2O)c(=O)c1=O)c1ccc(Cl)s1` (stereo not given) are 1.11 µM and 0.0062 µM.
As to `CCC(Nc1c(Nc2cccc(C(=O)N(C)C)c2O)c(=O)c1=O)c1ccc(-c2cccc(Cl)c2)o1` (stereo not given), the IC50 in data set [1] was 3.38 µM; in data set [2], 0.058 µM.
The matching figures for `CCC(Nc1c(Nc2cccc(C(=O)N(C)C)c2O)c(=O)c1=O)c1cc(-c2ccncc2)co1` (stereo not given): 0.526 µM and 0.0095 µM.
As to `CCC(Nc1c(Nc2cccc(C(=O)N(C)C)c2O)c(=O)c1=O)c1ncco1` (stereo not given), the 50% inhibitory concentration (IC50) in data set [1] is 0.795 µM; in data set [2], 0.0086 µM.
The matching figures for `CCC(Nc1c(Nc2cccc(C(=O)N(C)C)c2O)c(=O)c1=O)c1ccc(Cl)o1` (stereo not given): 0.275 µM and 0.0048 µM.
Regarding `CCC(Nc1c(Nc2cccc(C(=O)N(C)C)c2O)c(=O)c1=O)c1ccc(C(F)(F)F)o1` (stereo not given), the IC50 in data set [1] was 6.06 µM; in data set [2] it was 0.0172 µM.
The corresponding values for `CCC(Nc1c(Nc2cccc(C(=O)N(C)C)c2O)c(=O)c1=O)c1cc(-c2ccsc2)co1` (stereo not given) are 0.221 µM and 0.0082 µM.
The corresponding values for `CCC(Nc1c(Nc2cccc(C(=O)N(C)C)c2O)c(=O)c1=O)c1ccoc1` (stereo not given) are 0.812 µM and 0.008 µM.
For the compound `CCC(Nc1c(Nc2cccc(C(=O)N(C)C)c2O)c(=O)c1=O)c1ccsc1` (stereo not given), the IC50 came out at 0.165 µM in data set [1] and 0.0058 µM in data set [2].
Consider `CCC(Nc1c(Nc2cccc(C(=O)N(C)C)c2O)c(=O)c1=O)c1ccc(CN(C)C)o1` (stereo not given), for which the concentration for half-maximal inhibition (IC50) in data set [2] worked out at 0.094 µM. Moreover, in data set [5], the outcome was inactive.
Consider `CCC(Nc1c(Nc2cccc(C(=O)N(C)C)c2O)c(=O)c1=O)c1cccs1` (stereo not given), for which the IC50 in data set [1] worked out at 0.179 µM; in data set [2] it was 0.0062 µM.
The matching figures for `CCC(Nc1c(Nc2cccc(C(=O)N(C)C)c2O)c(=O)c1=O)c1cc2ccccc2o1` (stereo not given): 0.412 µM and 0.0035 µM.
The corresponding values for `CCC(Nc1c(Nc2cccc(C(=O)N(C)C)c2O)c(=O)c1=O)c1ccc(-c2cccc(C(F)(F)F)c2)o1` (stereo not given) are 3.43 µM and 0.087 µM.
